Measurements reported in patent publication US20210238197A1, “NOVEL OXOQUINOLIZINE COMPOUNDS FOR THE TREATMENT AND PROPHYLAXIS OF BACTERIAL INFECTION” (Hoffmann-La Roche Inc., priority 2018, published 2021).
In brackets after ≈: the same amount, converted by molar mass. Like-named read-outs stand apart in the source and are kept apart here.

How the values were obtained:
S. aureus (ATCC29213) = test: 50% growth inhibitory concentration (IC50) determination assay, S. aureus; format: cell-based; conditions: Staphylococcus aureus, ATCC29213; Iso-Sensitest broth, growth by OD 600 nm over 16 h; <0.098 = detection limit
Outline: (§1)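 Compounds two-fold diluted from 50 to 0.097 μM (final) in Iso-Sensitest broth, inoculum ~5×10^5 CFU/mL. Incubation at 35±2 °C with OD600 read every 20 min over 16 h to track growth.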

[1] = system: K. pneumoniae (ATCC10031); test: 50% growth inhibitory concentration (IC50) determination assay, K. pneumoniae; format: cell-based; conditions: Klebsiella pneumoniae, ATCC10031; Iso-Sensitest broth, growth by OD 600 nm over 16 h; <0.098 = detection limit
Outline: as §1

A. baumannii (ATCC17978) = test: 50% growth inhibitory concentration (IC50) determination assay, A. baumannii; format: cell-based; conditions: Acinetobacter baumannii, ATCC17978; Iso-Sensitest broth, growth by OD 600 nm over 16 h; <0.098 = detection limit
Outline: as §1

[2] = Lyophilisation solubility assay (LYSA); format: physicochemical; conditions: aqueous buffer, thermodynamic from solid; 0.05 M phosphate buffer, pH 6.5; <1.0 = detection limit
Experimental: The solubility of compounds of present invention was assessed by LYSA assay. Samples were prepared in duplicate from 10 mM DMSO stock solutions (20 μL) diluted in 30 μL pure DMSO. After evaporation of DMSO with a centrifugal vacuum evaporator, the residue was dissolved in 0.05 M phosphate buffer (150 μL, pH 6.5), which was stirred for one hour and shook for two hours. After one night, the solution was filtered using a microtiter filter plate. Then the filtrate and its 1/10 dilution were analyzed by HPLC-UV. In addition a four-point calibration curve was prepared from the 10 mM stock solutions and used for the solubility determination of the compounds.

[3] = Cytotoxicity assay (HepG2, CellTiter-Blue); format: cell-based; conditions: human; HepG2 cells, 3 days treatment; >100 = detection limit
Experimental: The cytotoxicity of compounds of present invention was assessed by HepG2 assay. HepG2 cells (ATCC RB-8065™) were seeded into 96-well plates (1.2×10^4 cells per well) and treated with compounds for 3 days, cell viability was measured at day 3 post compound treatment using the CellTiter-Blue® Cell Viability Assay (Promega, Cat. No. G8082). […], of Cell titer blue buffer were added to each well of the cells, which were incubated for 3 hours at 37° C., and the fluorescence value was measured by a plate reader (Molecular Device SpectraMax M2). The CC50 value of each compound is plotted with GraphPad Prism using four parameter logistic equation.

[4] = system: multiple species and strains; test: microbe, parasite or virus in culture; parameters: MIC S9 / MIC S7 / MIC S11 / MIC S8 / MIC S10: unit not given beside the values
Outline: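 Broth microdilution per CLSI M07-A10 in CAMHB, CAMHB+3% lysed horse blood or HTM. Inoculum was set to OD600 ~0.1, then diluted 1:280 (Gram-positive) or 1:400 (Gram-negative), and plates were incubated 18-24 h at 35±2° C in ambient air. MIC (μg/mL) is the lowest concentration giving no visible growth.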

Row | SMILES | IC50 (S. aureus (ATCC29213)) | IC50 [1] | IC50 (A. baumannii (ATCC17978)) | solubility thermodynamic [2] | other results
1 | CNc1cc(Cl)cc2c1[nH]c1ncc(-c3ccc4ccc(C(=O)O)c(=O)n4c3)c(N3CC[C@H]4CN(C)C[C@H]43)c12 (relative stereo) [Example 1.19, 7-[6-chloro-4-(cis-5-methyl-2,3,3a,4,6,6a-hexahydropyrrolo[2,3-c]pyrrol-1-yl)-8-(methylamino)-9H-pyrido[2,3-b]indol-3-yl]-4-oxo-quinolizine-3-carboxylic acid] | 185 nM | < 98 nM | < 98 nM | 29 µg/mL (≈ 53.4 µM) | 
2 | CNc1cc(F)c(F)c2c1[nH]c1ncc(-c3ccc4c(CN(C)C)cc(C(=O)O)c(=O)n4c3)c(N3CC[C@H]4CN(C)C[C@H]43)c12 (relative stereo) [Example 2.03, 7-[4-[cis-5-methyl-2,3,3a,4,6,6a-hexahydropyrrolo[2,3-c]pyrrol-1-yl]-5,6-difluoro-8-(methylamino)-9H-pyrido[2,3-b]indol-3-yl]-1-[(dimethylamino)methyl]-4-oxo-quinolizine-3-carboxylic acid] | 194 nM | < 98 nM | < 98 nM | > 1060 µg/mL | CC50 at 3 days [3]: 46400 nM
3 | CNc1cc(F)c(F)c2c1[nH]c1ncc(-c3ccc4c(C(F)(F)F)cc(C(=O)O)c(=O)n4c3)c(N3CC[C@H]4CN(C)C[C@H]43)c12 (relative stereo) [Example 2.06, 7-[4-[cis-5-methyl-2,3,3a,4,6,6a-hexahydropyrrolo[2,3-c]pyrrol-1-yl]-5,6-difluoro-8-(methylamino)-9H-pyrido[2,3-b]indol-3-yl]-4-oxo-1-(trifluoromethyl)quinolizine-3-carboxylic acid] |  |  |  | 7 µg/mL (≈ 11.4 µM) | 
4 | CNc1cc(F)c(F)c2c1[nH]c1ncc(-c3ccc4c(CN5CCCC5)cc(C(=O)O)c(=O)n4c3)c(N3CC[C@H]4CN(C)C[C@H]43)c12 (relative stereo) [Example 2.10, 7-[4-[cis-5-methyl-2,3,3a,4,6,6a-hexahydropyrrolo[2,3-c]pyrrol-1-yl]-5,6-difluoro-8-(methylamino)-9H-pyrido[2,3-b]indol-3-yl]-4-oxo-1-(pyrrolidin-1-ylmethyl)quinolizine-3-carboxylic acid] |  |  |  | > 940 µg/mL | CC50 at 3 days [3]: 89200 nM
5 | CNc1cc(F)cc2c1[nH]c1ncc(-c3ccc4ccc(C(=O)O)c(=O)n4c3)c(N3CC[C@@H]4CN(C)C[C@@H]43)c12 (single isomer, unassigned) [Example 3.02B] | 1280 nM | < 98 nM | 483 nM | > 683 µg/mL | 
6 | CNc1cc(F)c(C#N)c2c1[nH]c1ncc(-c3ccc4ccc(C(=O)O)c(=O)n4c3)c(N3CC[C@H]4CCN(C)C4C3)c12 (stereo in doubt) [Example 1.17, 7-[4-[cis-1-methyl-3,3a,4,5,7,7a-hexahydro-2H-pyrrolo[2,3-c]pyridin-6-yl]-5-cyano-6-fluoro-8-(methylamino)-9H-pyrido[2,3-b]indol-3-yl]-4-oxo-quinolizine-3-carboxylic acid] | 139 nM | < 98 nM | < 98 nM | 12 µg/mL (≈ 21.2 µM) | MIC ([4]; Acinetobacter baumannii, ATCC19606, read-out: MIC S1, A. baumannii ATCC 19606): 0.882 µg/mL (≈ 1.56 µM); MIC ([4]; Acinetobacter baumannii, ATCC51432, read-out: MIC S2, A. baumannii ATCC 51432): 0.882 µg/mL (≈ 1.56 µM); MIC ([4]; Acinetobacter baumannii, ATCCBAA747, read-out: MIC S3, A. baumannii ATCC BAA-747): 0.882 µg/mL (≈ 1.56 µM); MIC S9 ([4]; E. coli ATCC 35218): 0.882; MIC ([4]; Escherichia coli, ATCC25922, read-out: MIC S11, E. coli ATCC 25922): 0.166 µg/mL (≈ 0.293 µM); MIC ([4]; Escherichia coli, ATCCBAA2340, read-out: MIC S10, E. coli ATCC BAA-2340): 0.882 µg/mL (≈ 1.56 µM); MIC ([4]; Klebsiella pneumoniae, ATCC10031, read-out: MIC S4, K. pneumoniae ATCC 10031): 0.028 µg/mL (≈ 0.0495 µM); MIC ([4]; Klebsiella pneumoniae, ATCC700603, read-out: MIC S5, K. pneumoniae ATCC 700603): 3.54 µg/mL (≈ 6.25 µM); MIC ([4]; Klebsiella pneumoniae, ATCCBAA2146, read-out: MIC S6, K. pneumoniae ATCC BAA-2146): 3.54 µg/mL (≈ 6.25 µM); MIC ([4]; Pseudomonas aeruginosa, ATCC27853, read-out: MIC S7, P. aeruginosa ATCC 27853): 0.882 µg/mL (≈ 1.56 µM); MIC ([4]; Pseudomonas aeruginosa, ATCCBAA2113, read-out: MIC S8, P. aeruginosa ATCC BAA-2113): 3.54 µg/mL (≈ 6.25 µM)
7 | CNc1cc(F)cc2c1[nH]c1ncc(-c3ccc4ccc(C(=O)O)c(=O)n4c3)c(N3CCO[C@H](CN(C)C)C3)c12 [Example 2.07, (R)-7-(4-(2-((dimethylamino)methyl)morpholino)-6-fluoro-8-(methylamino)-9H-pyrido[2,3-b]indol-3-yl)-4-oxo-4H-quinolizine-3-carboxylic acid] | 379 nM | < 98 nM | 242 nM | 48 µg/mL (≈ 88.1 µM) | 
8 | CNc1cc(F)cc2c1[nH]c1ncc(-c3ccc4ccc(C(=O)O)c(=O)n4c3)c(N3CCO[C@@H](CN(C)C)C3)c12 [Example 2.08, (S)-7-(4-(2-((dimethylamino)methyl)morpholino)-6-fluoro-8-(methylamino)-9H-pyrido[2,3-b]indol-3-yl)-4-oxo-4H-quinolizine-3-carboxylic acid] | 433 nM | < 98 nM | 132 nM | 54 µg/mL (≈ 99.2 µM) | 

The next lines start with results.

Row | IC50 (S. aureus (ATCC29213)) | IC50 [1] | IC50 (A. baumannii (ATCC17978)) | solubility thermodynamic [2] | SMILES | other results
9 | < 98 nM | < 98 nM | < 98 nM | 41 µg/mL (≈ 73.4 µM) | CNc1cc(F)c(F)c2c1[nH]c1ncc(-c3cc(C)c4ccc(C(=O)O)c(=O)n4c3)c(N3CC[C@H]4CN(C)C[C@H]43)c12 (relative stereo) [Example 2.01, 7-(5,6-Difluoro-8-(methylamino)-4-(cis-5-methyl-2,3,3a,4,6,6a-hexahydropyrrolo[2,3-c]pyrrol-1-yl)-9H-pyrido[2,3-b]indol-3-yl)-9-methyl-4-oxo-4H-quinolizine-3-carboxylic acid] | 
10 | 108 nM | < 98 nM | < 98 nM | 58 µg/mL (≈ 103 µM) | CNc1cc(F)c(F)c2c1[nH]c1ncc(-c3cc(F)c4ccc(C(=O)O)c(=O)n4c3)c(N3CC[C@H]4CN(C)C[C@H]43)c12 (relative stereo) [Example 2.02, 7-[4-[cis-5-methyl-2,3,3a,4,6,6a-hexahydropyrrolo[2,3-c]pyrrol-1-yl]-5,6-difluoro-8-(methylamino)-9H-pyrido[2,3-b]indol-3-yl]-9-fluoro-4-oxo-quinolizine-3-carboxylic acid] | 
11 | 174 nM | < 98 nM | < 98 nM | 795 µg/mL (≈ 1240 µM) | CNc1cc(F)c(F)c2c1[nH]c1ncc(-c3ccc4c(CN5CCOCC5)cc(C(=O)O)c(=O)n4c3)c(N3CC[C@H]4CN(C)C[C@H]43)c12 (relative stereo) [Example 2.09, 7-[4-[cis-5-methyl-2,3,3a,4,6,6a-hexahydropyrrolo[2,3-c]pyrrol-1-yl]-5,6-difluoro-8-(methylamino)-9H-pyrido[2,3-b]indol-3-yl]-1-(morpholinomethyl)-4-oxo-quinolizine-3-carboxylic acid] | CC50 at 3 days [3]: 86900 nM
12 | < 98 nM | < 98 nM | < 98 nM | 9 µg/mL (≈ 17.1 µM) | CNc1cc(F)cc2c1[nH]c1ncc(-c3ccc4ccc(C(=O)O)c(=O)n4c3)c(N3C[C@H]4CCN(C)[C@H]4C3)c12 (single isomer, unassigned) [Example 3.01A] | 
13 | < 98 nM | < 98 nM | < 98 nM | 16 µg/mL (≈ 30.4 µM) | CNc1cc(F)cc2c1[nH]c1ncc(-c3ccc4ccc(C(=O)O)c(=O)n4c3)c(N3C[C@@H]4CCN(C)[C@@H]4C3)c12 (single isomer, unassigned) [Example 3.01B] | 
14 | 102 nM | < 98 nM | < 98 nM | 559 µg/mL (≈ 1060 µM) | CNc1cc(F)cc2c1[nH]c1ncc(-c3ccc4ccc(C(=O)O)c(=O)n4c3)c(N3CC[C@H]4CN(C)C[C@H]43)c12 (single isomer, unassigned) [Example 3.02A] | CC50 at 3 days [3]: 41300 nM
15 | < 98 nM | < 98 nM | < 98 nM | 90 µg/mL (≈ 166 µM) | CNc1cc(F)cc2c1[nH]c1ncc(-c3ccc4ccc(C(=O)O)c(=O)n4c3)c(N3CCC4(C)CN(C)CC34)c12 (stereo not drawn) [Example 1.10, 7-[4-(3a,5-dimethyl-3,4,6,6a-tetrahydro-2H-pyrrolo[2,3-c]pyrrol-1-yl)-6-fluoro-8-(methylamino)-9H-pyrido[2,3-b]indol-3-yl]-4-oxo-quinolizine-3-carboxylic acid] | 
